Data set [1] has as its system Rattus norvegicus. In words: Hypotensive activity was measured as ED20 which is the dose lowered the normal arterial pressure in anesthetized rat by 20% after iv administration. It is filed as functional, Artery.
Data set [2] deals with Rattus norvegicus. In words: Relative potency of compound was measured in conscious SH rats after po administration. The class given is functional.
The nature of data set [3]: Acute toxicity was measured as LD50 in mice after ip administration. It is filed as organism-based. The conditions noted are these: mouse, in vivo.
The subject of data set [4] is Rattus norvegicus. As to the kind of experiment: Antihypertensive activity was measured as ED20 which is the dose lowered the normal arterial pressure in conscious SH rats by 20% after po administration. The class given is functional, Artery.
Data set [5] relates to Rattus norvegicus. In words: Relative potency of compound was measured in anesthetized rats after iv administration. The class given is functional.
In data set [6] the test system is Rattus norvegicus. As to the kind of experiment: Relative potency of compound was measured in anesthetized rats after iv administration. It is filed as functional.
Data set [7] deals with Rattus norvegicus. In words: Hypotensive activity was measured as ED20 which is the dose lowered the normal arterial pressure in anesthetized rats by 20% after iv administration. The class given is functional, Artery.
Data set [8] relates to Rattus norvegicus. As to the kind of experiment: Relative potency of compound was measured in anesthetized rats after ip administration. It is filed as functional.
Data set [9] has as its system Rattus norvegicus. In words: Hypotensive activity was measured as ED20 which is the dose lowered the normal arterial pressure in anesthetized rats by 20% after iv administration. It is filed as functional, Artery.
In data set [10] the test system is Rattus norvegicus. As to the kind of experiment: Relative potency of compound was measured in conscious SH rats after po administration. It is filed as functional.
Data set [11] can be described thus: Acute toxicity was measured as LD50 in mice after ip administration. It is filed as organism-based. The conditions noted are these: mouse, in vivo.
For data set [12], the system named is Rattus norvegicus. As to the kind of experiment: Antihypertensive activity was measured as ED20 which is the dose lowered the normal arterial pressure in conscious SH rats by 20% after po administration. The class given is functional, Artery.
Data set [13] deals with Rattus norvegicus. As to the kind of experiment: Hypotensive activity was measured as ED20 which is the dose lowered the normal arterial pressure in anesthetized rats by 20% after ip administration. It is filed as functional, Artery.
Data set [14] relates to Rattus norvegicus. In words: Relative potency of compound was measured in anesthetized rats after ip administration. It is filed as functional.

Where only a bound is given, the exact number is not on record here.

This passage reports ED20, Relative potency and LD50 results from ChEMBL document CHEMBL1121897, “Synthesis and antihypertensive activity of new 6-heteroaryl-3-hydrazinopyridazine derivatives” (J Med Chem, 1981).

In general, LD50 refers to the dose at which mortality reaches 50%. A high value points to lower toxicity. As for `Cl.NNc1ccc(-n2cccc2)nn1`, the values for the ED20 in the data set on Rattus norvegicus [1] and in the data set on Rattus norvegicus [4] were 0.423 µM/kg and 40.1 µM/kg, respectively. Besides, the results for the Relative potency with Rattus norvegicus [2] and with Rattus norvegicus [5] were 0.9 and 1.06, respectively. The same molecule gave an LD50 in data set [3] of 389 µmol/kg.

As to `CC(C)=NNc1ccc(-n2cccc2)nn1.Cl`, the Relative potency with Rattus norvegicus [6] is on record as 0.1. The molecule further yielded an ED20 in the data set with Rattus norvegicus [7] of 4.65 µM/kg.

In turn, `Cc1ccc(C)n1-c1ccc(NN)nn1.Cl` showed a Relative potency with Rattus norvegicus [8] of 0.06. This molecule registered an ED20 in the data set with Rattus norvegicus [9] of 8.02 µM/kg.

Consider `CC(C)=C/C(C)=N\Nc1ccc(-n2cccc2)nn1.Cl`, for which the Relative potency in the data set on Rattus norvegicus [6] is given as 0.25. In the data set on Rattus norvegicus [7], the ED20 came out at 1.77 µM/kg.

Regarding `NNc1ccc(-c2ccc(Cl)s2)nn1`, in the data set with Rattus norvegicus [8], the Relative potency is recorded as 0.19. This molecule displayed an ED20 in the data set on Rattus norvegicus [9] of 9.51 µM/kg.

Consider `CCc1nccn1-c1ccc(NN=C(C)C)nn1`, for which the values for the Relative potency in the data set with Rattus norvegicus [6] and with Rattus norvegicus [10] were 1.82 and 3.54, respectively. The ED20 in the data set on Rattus norvegicus [7] was 0.247 µM/kg; in the data set on Rattus norvegicus [12], 10.2 µM/kg. Besides, the LD50 in data set [11] was found to be 508 µmol/kg.

In turn, `NNc1ccc(-n2c3ccccc3c3ccccc32)nn1` came in with a Relative potency in the data set with Rattus norvegicus [8] of less than 0.11.

For the molecule `NNc1ccc(-c2cccs2)nn1`, the Relative potency in the data set on Rattus norvegicus [8] stood at 1.08. In the data set on Rattus norvegicus [9], this molecule showed an ED20 of 0.41 µM/kg. Besides, in [3], the LD50 is 521 µmol/kg.

Take `Cc1nccn1-c1ccc(NN)nn1`: the results for the Relative potency with Rattus norvegicus [8] and in the data set on Rattus norvegicus [2] were 2.75 and 4.88, respectively. Moreover, the ED20 in the data set with Rattus norvegicus [9] came out at 0.163 µM/kg; with Rattus norvegicus [4], 7.42 µM/kg. Besides, the LD50 in data set [3] was found to be 1020 µmol/kg.

`NNc1ccc(-n2ccnc2)nn1` yielded a Relative potency with Rattus norvegicus [8] of 0.17. Moreover, in the data set with Rattus norvegicus [9], the ED20 is 2.64 µM/kg. Further, the LD50 in data set [3] is 853 µmol/kg.

Turning to `CCc1nccn1-c1ccc(NN)nn1`, the Relative potency is reported as 1.43 with Rattus norvegicus [8] and 2.52 with Rattus norvegicus [2]. Besides, the ED20 is 0.313 µM/kg in the data set with Rattus norvegicus [9] and 14.3 µM/kg in the data set with Rattus norvegicus [4]. In data set [3], this molecule yielded a 50% lethal dose (LD50) of 765 µmol/kg.

Take `NNc1ccc(-n2cncn2)nn1`: the Relative potency in the data set with Rattus norvegicus [8] is 0.17. The same molecule registered an LD50 in data set [3] of 262 µmol/kg.

Turning to `NNc1ccc(-n2ccc3ccccc32)nn1`, the Relative potency in the data set with Rattus norvegicus [8] stood at 0.22. The ED20 in the data set on Rattus norvegicus [9] is 2.06 µM/kg. In data set [3], this molecule came in with a 50% lethal dose (LD50) of 206 µmol/kg.

For the molecule `NNc1ccc(-n2cccn2)nn1`, the results for the ED20 with Rattus norvegicus [9] and in the data set with Rattus norvegicus [4] were 0.83 µM/kg and 27.3 µM/kg, respectively. Besides, the LD50 in data set [3] is 387 µmol/kg. Moreover, the Relative potency in the data set with Rattus norvegicus [10] is 1.32.

In the data set on Rattus norvegicus [13], `NNc1ccc(-n2cccc2)[n+]([O-])n1` registered an ED20 greater than 5.24 µM/kg. The Relative potency in the data set with Rattus norvegicus [14] is reported as less than 0.34.

With `CC(C)=NNc1ccc(-n2ccnc2C)nn1`, the Relative potency in the data set on Rattus norvegicus [6] is 1.86; in the data set on Rattus norvegicus [10], 3.37. For the same molecule, the ED20 with Rattus norvegicus [7] was 0.242 µM/kg; with Rattus norvegicus [12] it was 10.7 µM/kg. Moreover, in data set [11], the LD50 came to 430 µmol/kg.

Regarding `N/N=c1\[nH][nH]/c(=N\N)c2ccccc12` [DIHYDRALAZINE], the Relative potency with Rattus norvegicus [6] and in the data set with Rattus norvegicus [10] was 1 in each case. Also, the figures for the ED20 in the data set on Rattus norvegicus [7], in the data set with Rattus norvegicus [13] and in the data set on Rattus norvegicus [12] were 0.449 µM/kg, 1.78 µM/kg and 36.1 µM/kg, respectively. The molecule further returned a 50% lethal dose (LD50) in [11] of 1080 µmol/kg.
